What all share (experiment): relative viability (nuclei count vs DMSO), 5 days (fraction); higher = more cells survive
Compound in test [1]: Cc1cc([C@@H](C)Nc2ccccc2C(=O)O)c2nc(N3CCOCC3)cc(=O)n2c1 [AZD6482] + CS(=O)(=O)N1CCN(Cc2cc3nc(-c4cccc5[nH]ncc45)nc(N4CCOCC4)c3s2)CC1 [Pictilisib] (partner 1 µM)
In short, it runs like this: (§1)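 A single step with final 0.05% Triton X-100, 1% formaldehyde and 1 ug/ml Hoechst fixed the cells and stained nuclei 5 days after treatment. Lung cancer cell lines in 1536-well plates had been treated by pin tool the day after seeding with one drug alone or a fixed anchor-drug dose plus five library-drug doses (not always all listed) in √10 steps, and nuclei were counted on 4× images. Relative viability is the ratio of nuclei in treated wells to nuclei in vehicle wells, taken as the median of duplicate plates.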

Compound in test [2]: COc1cc2nc(N3CCCN(C)CC3)nc(NC3CCN(Cc4ccccc4)CC3)c2cc1OC + N=C(N)NC(=N)NCCc1ccccc1 [Phenformin] (partner 250 µM)
A digest of the protocol:
as §1

Compound in test [3]: Cc1cc([C@@H](C)Nc2ccccc2C(=O)O)c2nc(N3CCOCC3)cc(=O)n2c1 [AZD6482] + O=C(CCCCCCC(=O)Nc1ccccc1)NO [Vorinostat] (partner 1 µM)
In short, it runs like this: as §1

Compound in test [4]: Cc1cc([C@@H](C)Nc2ccccc2C(=O)O)c2nc(N3CCOCC3)cc(=O)n2c1 [AZD6482] + CC(=O)Nc1cccc(-n2c(=O)n(C3CC3)c(=O)c3c(Nc4ccc(I)cc4F)n(C)c(=O)c(C)c32)c1 [Trametinib] (partner 0.02 µM)
A digest of the protocol:
as §1

Regarding Calu-6, the relative viability in test [1] (first compound 0.08 µM) came to 0.823; in test [1] (first compound 0.253 µM), 0.85; in test [1] (first compound 0.8 µM), 0.846; in test [1] (first compound 2.53 µM) it was 0.673; in test [1] (first compound 8 µM), 0.937.
As to ChaGo-K-1, the relative viability turned out to be 0.51 in test [2] (first compound 0.2 µM); 0.494 in test [2] (first compound 0.6325 µM); 0.492 in test [2] (first compound 2 µM); 0.498 in test [2] (first compound 6.325 µM); 0.765 in test [1] (first compound 0.08 µM); 1.15 in test [1] (first compound 0.8 µM). In addition, the relative viability in test [1] (first compound 2.53 µM) was 1.01; in test [1] (first compound 8 µM), 0.977; in test [3] (first compound 0.08 µM), 0.752; in test [3] (first compound 0.253 µM) it was 0.7; in test [3] (first compound 0.8 µM), 0.744; in test [3] (first compound 2.53 µM), 0.708. Further, the relative viability amounted to 0.773 in test [3] (first compound 8 µM); 0.922 in test [4] (first compound 0.08 µM); 0.874 in test [4] (first compound 0.253 µM); 0.878 in test [4] (first compound 0.8 µM); 0.803 in test [4] (first compound 2.53 µM); 0.857 in test [4] (first compound 8 µM).
Consider EBC-1, for which the relative viability in test [1] (first compound 0.08 µM) was 0.314; in test [1] (first compound 0.253 µM) it was 0.295; in test [1] (first compound 0.8 µM), 0.209; in test [1] (first compound 2.53 µM) it was 0.197; in test [1] (first compound 8 µM), 0.292.
As to EKVX, the relative viability in test [2] (first compound 0.2 µM) came out at 0.233; in test [2] (first compound 0.6325 µM), 0.235; in test [2] (first compound 2 µM), 0.233; in test [2] (first compound 6.325 µM), 0.24; in test [1] (first compound 0.08 µM), 0.378; in test [1] (first compound 0.253 µM) it was 0.326. Besides, the relative viability in test [1] (first compound 0.8 µM) stood at 0.441; in test [1] (first compound 2.53 µM), 0.235; in test [1] (first compound 8 µM), 0.467; in test [3] (first compound 0.08 µM), 0.537; in test [3] (first compound 0.253 µM), 0.662; in test [3] (first compound 0.8 µM), 0.578. Besides, the relative viability in test [3] (first compound 2.53 µM) stood at 0.485; in test [3] (first compound 8 µM) it was 0.361; in test [4] (first compound 0.08 µM) it was 0.293; in test [4] (first compound 0.253 µM) it was 0.291; in test [4] (first compound 0.8 µM) it was 0.286; in test [4] (first compound 2.53 µM), 0.242. Further, the relative viability in test [4] (first compound 8 µM) was 0.203.
Turning to EMC-BAC-2, the relative viability is 0.531 in test [2] (first compound 0.2 µM); 0.477 in test [2] (first compound 0.6325 µM); 0.496 in test [2] (first compound 2 µM); 0.523 in test [2] (first compound 6.325 µM); 0.487 in test [1] (first compound 0.08 µM); 0.51 in test [1] (first compound 0.253 µM). Moreover, the relative viability was found to be 0.505 in test [1] (first compound 0.8 µM); 0.374 in test [1] (first compound 2.53 µM); 0.555 in test [1] (first compound 8 µM); 0.534 in test [3] (first compound 0.08 µM); 0.413 in test [3] (first compound 0.253 µM); 0.526 in test [3] (first compound 0.8 µM). Besides, the relative viability amounted to 0.341 in test [3] (first compound 2.53 µM); 0.316 in test [3] (first compound 8 µM); 0.841 in test [4] (first compound 0.08 µM); 0.956 in test [4] (first compound 0.253 µM); 0.893 in test [4] (first compound 0.8 µM); 0.667 in test [4] (first compound 2.53 µM). Further, the relative viability in test [4] (first compound 8 µM) stood at 0.706.
Regarding EPLC-272H, the relative viability was 0.353 in test [2] (first compound 0.2 µM); 0.335 in test [2] (first compound 0.6325 µM); 0.318 in test [2] (first compound 2 µM); 0.348 in test [2] (first compound 6.325 µM); 0.325 in test [1] (first compound 0.08 µM); 0.297 in test [1] (first compound 0.8 µM). Besides, the relative viability turned out to be 0.287 in test [1] (first compound 2.53 µM); 0.333 in test [1] (first compound 8 µM); 0.466 in test [3] (first compound 0.08 µM); 0.397 in test [3] (first compound 0.253 µM); 0.474 in test [3] (first compound 0.8 µM); 0.256 in test [3] (first compound 2.53 µM). Also, the relative viability in test [3] (first compound 8 µM) worked out at 0.252; in test [4] (first compound 0.08 µM), 0.251; in test [4] (first compound 0.253 µM), 0.213; in test [4] (first compound 0.8 µM), 0.27; in test [4] (first compound 2.53 µM), 0.234; in test [4] (first compound 8 µM), 0.194.
As for H3255, the relative viability in test [2] (first compound 0.2 µM) stood at 0.332; in test [2] (first compound 0.6325 µM), 0.372; in test [2] (first compound 2 µM) it was 0.362; in test [2] (first compound 6.325 µM) it was 0.344; in test [1] (first compound 0.08 µM) it was 0.461; in test [1] (first compound 0.253 µM), 0.434. Besides, the relative viability in test [1] (first compound 0.8 µM) was 0.453; in test [1] (first compound 2.53 µM), 0.305; in test [1] (first compound 8 µM) it was 0.47; in test [3] (first compound 0.08 µM), 0.741; in test [3] (first compound 0.253 µM), 0.871; in test [3] (first compound 0.8 µM) it was 0.764. Also, the relative viability stood at 0.697 in test [3] (first compound 2.53 µM); 0.689 in test [3] (first compound 8 µM); 0.604 in test [4] (first compound 0.08 µM); 0.551 in test [4] (first compound 0.253 µM); 0.575 in test [4] (first compound 0.8 µM); 0.402 in test [4] (first compound 2.53 µM). Further, in test [4] (first compound 8 µM), the relative viability stood at 0.367.
With HARA, the relative viability in test [2] (first compound 0.2 µM) worked out at 0.474; in test [2] (first compound 0.6325 µM) it was 0.425; in test [2] (first compound 2 µM), 0.494; in test [2] (first compound 6.325 µM), 0.462; in test [1] (first compound 0.08 µM) it was 0.254; in test [1] (first compound 0.253 µM), 0.395. The relative viability in test [1] (first compound 0.8 µM) amounted to 0.423; in test [1] (first compound 8 µM) it was 0.59; in test [3] (first compound 0.08 µM), 0.557; in test [3] (first compound 0.253 µM), 0.574; in test [3] (first compound 0.8 µM) it was 0.465; in test [3] (first compound 2.53 µM), 0.357. Besides, the relative viability is 0.437 in test [3] (first compound 8 µM); 0.538 in test [4] (first compound 0.08 µM); 0.496 in test [4] (first compound 0.253 µM); 0.453 in test [4] (first compound 0.8 µM); 0.336 in test [4] (first compound 2.53 µM); 0.352 in test [4] (first compound 8 µM).
On to HCC-15, for which the relative viability in test [2] (first compound 0.2 µM) is 0.443; in test [2] (first compound 0.6325 µM) it was 0.485; in test [2] (first compound 2 µM) it was 0.572; in test [2] (first compound 6.325 µM), 0.463; in test [1] (first compound 0.08 µM), 0.642; in test [1] (first compound 0.253 µM) it was 0.651. Also, the relative viability worked out at 0.766 in test [1] (first compound 0.8 µM); 0.641 in test [1] (first compound 2.53 µM); 0.849 in test [1] (first compound 8 µM); 0.778 in test [3] (first compound 0.08 µM); 0.806 in test [3] (first compound 0.253 µM); 0.858 in test [3] (first compound 0.8 µM). Also, the relative viability in test [3] (first compound 2.53 µM) was 0.685; in test [3] (first compound 8 µM), 0.739; in test [4] (first compound 0.08 µM), 0.356; in test [4] (first compound 0.253 µM), 0.348; in test [4] (first compound 0.8 µM), 0.33; in test [4] (first compound 2.53 µM) it was 0.271. In test [4] (first compound 8 µM), the relative viability is 0.273.

For the origin of these results see the supplement of paper PMC10307832.
